# Source: US20240299394A1, “TARGETED TREATMENT FOR SKIN FRAGILITY DISEASES” (University of Washington, priority 2023, published 2024)
# How the values were obtained:
# [1] = B-RAF inhibitor monotherapy for cancer (Carlos G, et al. 2015); cited from earlier work
# [2] = test system: NHEKs; assay: Immunofluorescence of plakoglobin / desmosomal protein localization; type: cell-based, human; details: B-RAF inhibitor alone, 24 hours in E-medium
# Procedure: Keratinocytes were grown to confluency in 35 mm glass-bottom cell culture dishes (MatTek of Ashland, MA, Cat. #P35G-1.5-20-C). For staining keratins and desmosomal proteins, cells were fixed in ice-cold 100% methanol at −20° C. for 2 minutes, allowed to dry, then re-hydrated in PBS. For staining other proteins, cells were fixed in 4% paraformaldehyde for 10 minutes at 37° C. Fixed cells were then incubated with blocking buffer [0.5% (w/v) bovine serum albumin (BSA, Sigma), 10% (w/v) normal goat serum (NGS, Sigma) in PBS] for 30 min at 37° C. Cells were then washed with PBS. Primary antibodies were diluted in 0.5% (w/v) BSA in PBS and incubated on the cells overnight at 4° C. Primary antibody dilutions were as follows: chicken anti-plakoglobin (1:1000). […]
# Images were acquired on a Hamamatsu ORCA-FusionBT sCMOS camera (Hamamatsu of Hamamatsu City, Japan) using a Yokogawa W1 spinning-disk confocal (SDC) system (Yokogawa of Musashino, Tokyo, Japan) on a Nikon Ti2 microscope (Nikon of Minato City, Tokyo, Japan). Samples were illuminated using 405, 488, 561, and 640 nm laser excitation lines and fluorescence was detected using a 60×1.2 numerical aperture (NA) water objective (Nikon) with standard emission filters.
# [3] = test system: ERK; assay: ERK biosensor (ERK-KTR-mClover) live imaging; type: cell-based, human; details: Dab or Vem alone, 24 h, 1.2 mM calcium
# Procedure: For live imaging of the ERK biosensor, NHEKs were transduced with ERK-KTR-mClover (Addgene Cat. #59150). HEK293FT cells were grown in complete DMEM, then transfected with 4 μg pLenti-CMV-PuroDEST-ERK-KTR-mClover DNA plus 12 μl FuGENE 6 (Promega of Madison, WI, Cat. #E2691) in 800 μL of Opti-MEM (Thermo-Fisher Cat. #31985070), which was added to the cells and left overnight. Lentiviral supernatants were collected the next day and polybrene (Sigma Cat. #H9268) was added at a concentration of 4 μg/mL. M154 was removed from NHEKs and replaced with viral medium for 1 hour at 37° C. Cells were then washed in PBS and placed back in their normal medium and expanded in culture.
# ERK-KTR-mClover-transduced cells were seeded into 35 mm glass-bottom dishes in low calcium medium (0.31 mM) and grown to confluency. […] Using Fiji (Fiji software, https://github.com/fiji/fiji), the nuclear region was encircled with the polygon tool and the “Measure” function was used to calculate the mean fluorescence intensity; after using the “Cut” function to remove the nuclear region, then remaining cytoplasmic region was encircled with the polygon tool and the “Measure” function was used to calculate the mean fluorescence intensity. The ERK activity index was calculated as the ratio of the cytoplasmic integrated fluorescence intensity (active) to the nuclear integrated fluorescence intensity.
compound,measurement,setting,value
CC(C)(C)c1nc(-c2cccc(NS(=O)(=O)c3c(F)cccc3F)c2F)c(-c2ccnc(N)n2)s1 [dabrafenib],patients in whom GD was seen,[1],42.9%
same,localization of desmosomal proteins,[2],induced mislocalization of desmosomal proteins
same,ERK activity (biosensor),[3],induced ERK activation
